Tests used:
p53 and its target genes [1] = assay: RT-qPCR of p53 and its target genes in S180 cells; format: cell-based, mouse; details: concentration dependent
Protocol: (§1) RNA was extracted using RNeasy Mini Kit (Qiagen) per manufacturer's instructions. 1 μg RNA was reverse transcribed into cDNA using qScript cDNA SuperMix (Quanta Biosciences) per manufacturer's instructions. Quantitative PCR was performed using SYBR Green SuperMix (Quanta Biosciences) in StepOnePlus Real-Time PCR System (Applied Biosystems). FIG. 10 is a graph showing p53 and its target gene expression induced in S180 cells by YW3-56 in a concentration dependent manner.

[2] = Three-month YW3-56 treatment of nude mice: body and vital organ size; format: in vivo, mouse; details: 10 mg/kg, three months
Protocol: (§2) FIGS. 11a and 11b show results of the effect of long term YW3-56 treatment in mice. A pair of nude mice is mock injected or injected with YW3-56 for three months. RT-qPCR analyses of p53 and its target gene mRNA levels in control and YW3-56 treated mice. […] However, these changes are at low levels and no clear change in liver weight and morphology is observed.
A three-month YW3-56 treatment including daily injection of YW3-56 at 10 mg/kg body weight in a pair of nude mice is performed and the size of mouse body and vital organs is not altered after YW3-56 treatment as shown in FIG. 13.

U2OS cells = assay: Phase contrast microscopy of U2OS cell growth and morphology; format: cell-based, human; details: 0-16 μM, 24 hours
Protocol: Cell growth and morphology changes of cells treated with compounds of the present invention are analyzed using phase contrast microscopy.
A VistaVision invert microscope (VWR Inc.) equipped with a Spot Insight digital camera (NDS, Inc.) and a 10× phase contrast lens were used to analyze cell growth and morphology in phase contrast microscopy analyses.
In this example, U2OS are treated with […] YW3-56 for 24 hours.

U2OS p53-shRNA cells = assay: MTT assay of U2OS cells with or without p53 depletion by shRNA; format: cell-based, human; details: same inhibitor concentration, p<0.02
Protocol: MTT assays are performed in U2OS cells with or without p53 depletion to analyze the role of p53 in YW3-56 mediated cell growth inhibition and autophagy.
U2OS and S-180 cells were cultured in Dulbecco modified Eagle medium (DMEM) supplemented with 10% fetal bovine serum and 1% penicillin-streptomycin in a 5% CO2 incubator. U2OS p53-shRNA and U2OS Ctrl-shRNA cells were generated as described in Li, P. et al., Regulation of p53 target gene expression by peptidylarginine deiminase 4. Mol Cell Bial 28 (15), 4745-4758 (2008). Concentrations and duration of YW3-56 treatment were performed as specified in the figures and text. For starvation assay, U2OS cells were first cultured in serum-free DMEM for 16 hr, 10% fetal bovine serum and different concentrations of YW3-56 was then added back and cells were further incubated for 8 hr before further analyses. SESN2 siRNA (Santa Cruz) and GFP siRNA (Dharmacon Inc.) were transfected into U2OS cells using the XtremeGene siRNA transfection reagents (Roche Inc.). Cells were incubated in the presence of the siRNA for 48 hr before adding YW3-56 and further incubated for 8 hr before analyses.

LC3 = assay: Western blot of LC3 cleavage (autophagy); format: cell-based, human; details: U2OS cells, concentration-dependent
Protocol: YW3-56 induces cell death by autophagy, a cell death process in which cellular proteins and organelles are degraded by fusion with lysosomes. Cleavage of LC3-I to generate a fast migrating isoform LC3-II is a characteristic autophagy event. LC3 cleavage is induced after YW3-56 treatment in a concentration-dependent manner as shown in the Western blot in FIG. 6. Western blot and immunostaining was performed essentially as described in Li, P. et al., Oncogene 29 (21), 3153-3162 (2010). Antibodies used in Western blot were anti-p53 (Sigma), anti-PAD4, anti-p21 (Sigma), anti-PUMA (Calbiochem), anti-SESN2 (Abeam), anti-p70S6K (Cell Signaling), anti-p70S6K-[…] (Cell Signaling), anti-LC3 (Cell Signaling) and anti-β-actin (Sigma) at appropriate dilutions. Anti-LC3B antibody (Cell Signaling) was used for immunostaining. DNA was stained by the DNA dye Hoechst.

S180 cells = assay: MTT assay of S180 cell growth inhibition; format: cell-based; details: Mus musculus, S-180
Protocol: Cells were treated with individual compounds at different concentrations for 72 hr in 24-well plates. MTT reagent was added to a final concentration of 0.5 mg/ml and further incubated for 4 hr. The yellow-colored MTT was reduced to insoluble purple-colored Formazan in living cells. Culture medium was removed and DMSO was added to dissolve Formazan into solution. The absorbance of the solution was then measured at 570 nm using a Thermo BioMate™ 3 spectrophotometer.

p53 and its target genes [3] = assay: RT-qPCR of p53 and its target gene mRNA in liver and spleen of treated nude mice; format: in vivo, mouse; details: YW3-56 10 mg/kg, 3 months
Protocol: as §1
Expression of p53 and its target genes in mouse liver and spleen after YW3-56 injection at 10 mg/kg body weight once every two days for 3 months.
as §2

PAD4 = PAD4 (Homo sapiens (Human), UniProt Q9UM07); assay: PAD4 enzyme activity colorimetric assay (citrullination of BAEE); format: biochemical; details: 0.2 μg PAD4, 5 mM BAEE, 37° C.
Protocol: PAD4 enzyme activity assays are conducted to determine PAD4 inhibitory activity. PAD4 inhibition efficacy of the inhibitors is determined using a colorimetric assay for citrullination production.
The inhibition efficacy of PAD4 inhibitors were determined by colorimetric measurement of citrulline generated by PAD4 catalyzed citrullination of BAEE. 0.2 μg PAD4 was pre-incubated with inhibitors in 100 μl buffer containing 50 mM Tris-HCl pH7.6, 5 mM CaCl2, 2 mM DTT for 0.5 hr at 37° C. The reaction was started by the addition of BAEE to 5 mM and halted 1.5 hr later with the addition of 25 μl 5 M HClO4. Then the samples were briefly centrifuged at 12000 rpm for 2 min at 4° C. and the supernatant (120 μl) were assayed for citrulline by mixing with 120 μl reagent A (0.5% w/v diacetyl monoxime and 15% w/v NaCl in water) and 240 μl reagent B (1% w/v antipyrine, 0.15% w/v ferric chloride, 25% v/v H2SO4 and 25% v/v H3PO4). The mixtures were boiled for 15 min and cooled to room temperature in ice bath. The absorbance of the reagent mixtures at 464 nm was measured by Thermo BioMate™ 3 spectrophotometer. Efficacies of inhibitors are indicated as relative PAD4 citrullination activity by normalizing the PAD4 activity without inhibitor treatment to 100%.

Sequence of PAD4 (Q9UM07 whole entry, species assumed): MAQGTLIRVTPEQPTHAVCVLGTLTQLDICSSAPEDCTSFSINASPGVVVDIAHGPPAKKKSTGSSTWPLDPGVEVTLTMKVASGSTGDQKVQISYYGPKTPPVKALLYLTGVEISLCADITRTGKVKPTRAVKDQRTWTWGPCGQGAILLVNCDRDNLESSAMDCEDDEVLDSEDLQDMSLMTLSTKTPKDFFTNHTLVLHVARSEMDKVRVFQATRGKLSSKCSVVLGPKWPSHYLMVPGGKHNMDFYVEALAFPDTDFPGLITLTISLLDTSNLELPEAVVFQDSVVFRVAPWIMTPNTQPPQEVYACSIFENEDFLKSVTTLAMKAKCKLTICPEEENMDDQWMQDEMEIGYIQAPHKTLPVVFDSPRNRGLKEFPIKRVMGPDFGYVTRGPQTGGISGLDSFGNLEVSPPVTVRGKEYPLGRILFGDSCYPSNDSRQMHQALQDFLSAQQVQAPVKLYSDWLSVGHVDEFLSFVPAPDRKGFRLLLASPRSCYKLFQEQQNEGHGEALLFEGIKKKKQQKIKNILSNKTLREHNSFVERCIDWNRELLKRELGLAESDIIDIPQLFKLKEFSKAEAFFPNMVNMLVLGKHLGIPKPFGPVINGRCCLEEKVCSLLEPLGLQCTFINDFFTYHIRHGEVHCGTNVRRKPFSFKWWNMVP

Structure (SMILES): CN(C)c1ccc2cc(C(=O)N[C@@H](CCCNC(=N)CCl)C(=O)NCc3ccccc3)ccc2c1 [YW3-56]
- expression of p53 and its target genes including SESN1 and SESN2 (p53 and its target genes [1]): induced the expression
- size of mouse body and vital organs [2]: not altered
- U2OS cell density in culture (U2OS cells): decreases U2OS cell density
- efficacy on cell growth inhibition after p53 depletion (U2OS p53-shRNA cells): decreased significantly
- LC3 cleavage (LC3): induced
- IC50 (S180 cells): 10 to 15 µM
- OKL38 mRNA change in liver (p53 and its target genes [3]; decrease): ~2 fold
- PUMA mRNA change in liver (p53 and its target genes [3]; decrease): ~2 fold
- p21 mRNA change in liver (p53 and its target genes [3]; increase): ~2 fold
- p53 mRNA change in liver (p53 and its target genes [3]; increase): ~2 fold
- changes in gene expression in spleen (p53 and its target genes [3]; 2-fold expression change as cut off): not detected
- IC50 (PAD4): 1000 to 5000 nM

Reference: patent US8969333B2, “Therapeutic compositions and methods” (The Penn State Research Foundation, priority 2010, dated 2015)
